Reference: US6610689B2, “HIV protease inhibitors based on amino acid derivatives” (priority 2001, dated 2003)
Where two headings read alike, the source gives them in different places.

Target: T1, HIV protease (Human immunodeficiency virus type 1 group M subtype B, UniProt P04585)
T1 construct: A third viral enzyme known as protease then cleaves the polyproteins
Test: Enzymatic Assay for Determining the Inhibition Constant (Ki) of Synthetic Compounds Targeting the HIV Protease (fluorometric FRET assay)
Type: biochemical
In short: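 Ki obtained via the Henderson equation from enzyme velocities with and without compound, accounting for substrate concentration and Km. Activity followed by FRET fluorescence from cleavage of a substrate flanked by EDANS donor and DABCYL acceptor.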

[1] = Table 1, compounds of formula I, read-out: Ki (anti-protease activity)
[2] = Anti-protease activity of Ne-amino acid substituted L-lysine derivatives and analogs of formula I, read-out: Ki

SMILES | Ki [nM] | further results
Cc1ccc(S(=O)(=O)N[C@@H](CC(N)=O)C(=O)NCCCC[C@@H](C(=O)O)N(CC(C)C)S(=O)(=O)c2ccc(N)cc2)cc1 [Example 47, Nα-(4-Aminobenzenesulfonyl)-Nα-isobutyl-Nε-[N′α-(4-methylbenzenesulfonyl)-L-asparagyl]-L-lysine] | 54 | 
Cc1ccc(S(=O)(=O)N(CC(C)C)[C@H](CO)CCCCNC(=O)[C@H](Cc2c[nH]c3ccccc23)NS(=O)(=O)c2cccs2)cc1 [Example 129, (2S,2′S) 2-N-Isobutyl-2-N-(4-methylbenzenesulfonyl)-6-N-[N′α-(2-thiophenesulfonyl)-S-tryptophanyl]-2,6-diaminohexanol] | 1 | 
Cc1ccc(S(=O)(=O)N(CC(C)C)[C@H](CO)CCCCNC(=O)[C@H](Cc2ccccc2)NS(=O)(=O)c2ccc(F)cc2)cc1 [Example 125, (2S,2′S) 2-N-Isobutyl-2-N-(4-methylbenzenesulfonyl)-6-N-[N′α-(4-fluorobenzenesulfonyl)-S-phenylalanyl]-2,6-diaminohexanol] |  | Ki [1]: 39 nM
CC(C)CN([C@H](CO)CCCCNC(=O)[C@H](Cc1ccccc1)NC(=O)N1CCOCC1)S(=O)(=O)c1ccc(N)cc1 [Example 180, (2S,2′S) 2-N-(4-Aminobenzenesulfonyl)-2-N-isobutyl-6-N-[N′α-(4-morpholinecarbonyl)-S-phenylalanyl]-2,6-diaminohexanol] | 2.4 | 
Cc1ccc(S(=O)(=O)N[C@@H](Cc2ccc([N+](=O)[O-])cc2)C(=O)NCCCC[C@@H](C(=O)O)N(CC(C)C)S(=O)(=O)c2ccc(C)cc2)cc1 [Example 26, Nα-Isobutyl-Nα-(4-methylbenzenesulfonyl)-Nε-[N′α-(4-methylbenzenesulfonyl)-L-4-nitrophenylalanyl]-L-lysine] |  | Ki [2]: 2.6 nM
CC(C)CN([C@H](CO)CCCCNC(=O)[C@H](Cc1c[nH]c2ccccc12)NS(=O)(=O)c1ccc(N)cc1)S(=O)(=O)c1ccc(N)cc1 [Example 187, (2S,2′S) 2-N-(4-Aminobenzenesulfonyl)-2-N-isobutyl-6-N-[N′α-(4-aminobenzenesulfonyl)-S-tryptophanyl]-2,6-diaminohexanol] | 0.2 | 
Cc1ccc(S(=O)(=O)N(CC(C)C)[C@H](CO)CCCCNC(=O)[C@H](Cc2ccccn2)NC(=O)OC(C)(C)C)cc1 [Example 134, (2S,2′S) 2-N-Isobutyl-2-N-(4-methylbenzenesulfonyl)-6-N-(N′α-tert-butoxycarbonyl-S-2-pyridylalanyl)-2,6-diaminohexanol] | 30 | 
Cc1ccc(S(=O)(=O)N(CC(C)C)[C@H](CO)CCCCNC(=O)[C@H](Cc2ccccc2)NS(=O)(=O)c2ccccc2)cc1 [Example 123, (2S,2′S) 2-N-Isobutyl-2-N-(4-methylbenzenesulfonyl)-6-N-(N′α-benzenesulfonyl-S-phenylalanyl)-2,6-diaminohexanol] | 14 | 
COc1ccc(S(=O)(=O)N(CC(C)C)[C@H](CO)CCCCNC(=O)[C@H](Cc2c[nH]c3ccccc23)NS(=O)(=O)c2ccc(C)cc2)cc1 [Example 149, (2S,2′S) 2-N-Isobutyl-2-N-(4-methoxybenzenesulfonyl)-6-N-[N′α-(4-methylbenzenesulfonyl)-S-tryptophanyl]-2,6-diaminohexanol] | 7.5 | 
Cc1ccc(S(=O)(=O)N[C@@H](Cc2c[nH]c3ccccc23)C(=O)NCCCC[C@@H](CO)N(CC(C)C)S(=O)(=O)c2ccc(C)cc2)cc1 [Example 97, (2S,2′S) 2-N-Isobutyl-2-N-(4-methylbenzenesulfonyl)-6-N-[N′α-(4-methylbenzenesulfonyl)-S-tryptophanyl]-2,6-diaminohexanol] | 3.6 | 
COC(=O)[C@H](CCCCNC(=O)[C@H](Cc1c[nH]c2ccccc12)NS(=O)(=O)c1ccc(C)cc1)N(CC(C)C)S(=O)(=O)c1ccc(C)cc1 [Example 69, Nα-Isobutyl-Nα-(4-methylbenzenesulfonyl)-Nε-[N′α-(4-methylbenzenesulfonyl)-L-tryptophanyl]-L-lysine Methyl Ester] | > 300 | 
Cc1ccc(S(=O)(=O)N(CC(C)C)[C@@H](CCCCNC(=O)CN(Cc2ccccc2)c2ccccc2)C(=O)O)cc1 [Example 114, Nα-Isobutyl-Nα-(4-methylbenzenesulfonyl)-Nε-(N′α-benzyl-N′α-phenylglycyl)-L-lysine] |  | Ki [1]: 0.937 nM
Cc1ccc(S(=O)(=O)N(CC(C)C)[C@@H](CCCCNC(=O)[C@@H]2Cc3ccccc3CN2S(=O)(=O)c2ccc(C)cc2)C(=O)O)cc1 [Example 65] | 24 | 
Cc1ccc(S(=O)(=O)N(CC(C)C)[C@@H](CCCCNC(=O)[C@H](Cc2ccccc2)NS(=O)(=O)c2cccs2)C(=O)O)cc1 [Example 24, Nα-Isobutyl-Nα-(4-methylbenzenesulfonyl)-Nε-[N′α-(2-thiophenesulfonyl)-L-phenylalanyl]-L-lysine] | 0.506 | 
Cc1ccc(S(=O)(=O)N[C@@H](CC(=O)O)C(=O)NCCCC[C@@H](C(=O)O)N(CC(C)C)S(=O)(=O)c2ccc(C)cc2)cc1 [Example 41, Nα-Isobutyl-Nα-(4-methylbenzenesulfonyl)-Nε-[N′α-(4-methylbenzenesulfonyl)-L-aspartyl]-L-lysine] | 172 | 
Cc1ccc(CSC[C@H](NC(=O)OC(C)(C)C)C(=O)NCCCC[C@@H](C(=O)O)N(CC(C)C)S(=O)(=O)c2ccc(C)cc2)cc1 [Example 83, Nα-Isobutyl-Nα-(4-methylbenzenesulfonyl)-Nε-[N′α-tert-butoxycarbonyl-S-(4-methylbenzyl)-L-cysteinyl]-L-lysine] |  | Ki [2]: 62 nM
CC(C)CN([C@@H](CCCCNC(=O)[C@H](Cc1ccccc1)NS(=O)(=O)c1cccs1)C(=O)NN)S(=O)(=O)c1ccc(N)cc1 [Example 49, Nα-(4-Aminobenzenesulfonyl)-Nα-isobutyl-Nε-[N′α-(2-thiophenesulfonyl)-L-phenylalanyl]-L-lysine Hydrazide] | 17 | 
CC(=O)N[C@@H](Cc1c[nH]c2ccccc12)C(=O)NCCCC[C@@H](CO)N(CC(C)C)S(=O)(=O)c1ccc(C)cc1 [Example 131, (2S,2′S) 2-N-Isobutyl-2-N-(4-methylbenzenesulfonyl)-6-N-(N′α-acetyl-S-tryptophanyl)-2,6-diaminohexanol] | 3 | 
COC(=O)[C@H](CCCCNC(=O)[C@H](Cc1ccccc1)NS(=O)(=O)c1ccc(C)cc1)N(CC(C)C)S(=O)(=O)c1ccc(C)cc1 [Example 68, Nα-Isobutyl-Nα-(4-methylbenzenesulfonyl)-Nε-[N′α-(4-methylbenzenesulfonyl)-L-phenylalanyl]-L-lysine Methyl Ester] | > 300 | 
COc1ccc(S(=O)(=O)N[C@@H](Cc2ccccc2)C(=O)NCCCC[C@@H](CO)N(CC(C)C)S(=O)(=O)c2ccc(C)cc2)cc1 [Example 126, (2S,2′S) 2-N-Isobutyl-2-N-(4-methylbenzenesulfonyl)-6-N-[N′α-(4-methoxybenzenesulfonyl)-S-phenylalanyl]-2,6-diaminohexanol] | 19 | 
Cc1ccc(S(=O)(=O)N(CC(C)C)[C@H](CO)CCCCNC(=O)[C@H](Cc2ccccc2)NC(=O)c2ccccc2)cc1 [Example 95, (2S,2′S) 2-N-Isobutyl-2-N-(4-methylbenzenesulfonyl)-6-N-(N′α-benzoyl-S-phenylalanyl)-2,6-diaminohexanol] | 54 | 
Cc1ccc(S(=O)(=O)N(CC(C)C)[C@@H](CCCCNC(=O)CNc2ccccc2)C(=O)O)cc1 [Example 105, Nα-Isobutyl-Nα-(4-methylbenzenesulfonyl)-Nε-(N′α-phenylglycyl)-L-lysine] |  | Ki [1]: 7.7 nM
Cc1ccc(S(=O)(=O)N[C@@H](Cc2ccccc2)C(=O)NCCCC[C@@H](C(=O)O)N(CC(C)C)S(=O)(=O)c2cccs2)cc1 [Example 54, Nα-Isobutyl-Nα-(2-thiophenesulfonyl)-Nε-[N′α-(4-methylbenzenesulfonyl)-L-phenylalanyl]-L-lysine] | 17 | 
CC(=O)Nc1ccc(S(=O)(=O)N[C@@H](Cc2ccccc2)C(=O)NCCCC[C@@H](C(=O)O)N(CC(C)C)S(=O)(=O)c2ccc(C)cc2)cc1 [Example 3, Nα-Isobutyl-Nα-(4-methylbenzenesulfonyl)-Nε-[N′α-(4-acetamidobenzenesulfonyl)-L-phenylalanyl]-L-lysine] | 0.977 | 
COc1ccc(CN(CC(=O)NCCCC[C@@H](CO)N(CC(C)C)S(=O)(=O)c2ccc(N)cc2)c2ccccc2)cc1 [Example 176, (2S) 2-N-(4-Aminobenzenesulfonyl)-2-N-isobutyl-6-N-[N′α-(4-methoxybenzyl)-N′α-phenylglycyl]-2,6-diaminohexanol] | 2.4 | 
Cc1ccc(S(=O)(=O)N(CC(C)C)[C@@H](CCCCNC(=O)[C@H](Cc2ccccc2)NC(=O)N2CCOCC2)C(=O)O)cc1 [Example 51, Nα-Isobutyl-Nα-(4-methylbenzenesulfonyl)-Nε-[N′α-(4-morpholinecarbonyl)-L-phenylalanyl]-L-lysine] | 0.9 | 
Cc1ccc(S(=O)(=O)N[C@@H](CCC(=O)O)C(=O)NCCCC[C@@H](C(=O)O)N(CC(C)C)S(=O)(=O)c2ccc(C)cc2)cc1 [Example 38, Nα-Isobutyl-Nα-(4-methylbenzenesulfonyl)-Nε-[N′α-(4-methylbenzenesulfonyl)-L-glutamyl]-L-lysine] | 220 | 
Cc1ccc(S(=O)(=O)N(CC(C)C)[C@@H](CCCCNC(=O)[C@@H](N)Cc2c[nH]c3ccccc23)C(=O)O)cc1 [Example 93, Nα-Isobutyl-Nα-(4-methylbenzenesulfonyl)-Nε-(L-tryptophanyl)-L-lysine] | 2.1 | 
Cc1ccc(S(=O)(=O)N(CC(C)C)C(CCCCNC(=O)C(Cc2c[nH]c3ccccc23)NS(=O)(=O)c2ccccc2)C(=O)OCC(O)CO)cc1 [Example 104, Nα-Isobutyl-Nα-(4-methylbenzenesulfonyl)-Nε-(N′α-benzenesulfonyl-L-tryptophanyl)-L-lysine 2,3-Dihydroxypropyl Ester] | > 300 | 
COc1ccc(S(=O)(=O)N(CC2CCCC2)[C@@H](CCCCNC(=O)[C@H](Cc2c[nH]c3ccccc23)NC(=O)OC(C)(C)C)C(=O)O)cc1 [Example 151, Nα-Cyclopentylnethyl-Nα-(4-methoxybenzenesulfonyl)-Nε-(N′α-tert-butoxycarbonyl-L-tryptophanyl)-L-lysine] | 5.3 | 
